From patent US20250304551A1 (SHANGHAI APEIRON THERAPEUTICS COMPANY LIMITED, priority 2022, published 2025) come the findings set out here.

A value given as a limit tells only on which side of the number the result lay.

The test system of one assay is OVCAR3 cells. In words: Cell proliferation activity test, OVCAR3 (CyQUANT Direct). In kind it is cell-based. The following applies: Homo sapiens, OVCAR-3, 72 h, 3 days incubation, CyQUANT fluorescence detection, read-out: OVCAR-3 Cell Viability_IC50_nM. The essentials:
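OVCAR3 cells seeded overnight, then exposed to compounds at 0-10 μM final (0.20% DMSO) for 3 days at 37° C. Cell number read by CyQUANT Direct fluorescence after 60 min at 37° C.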

Another assay has as its system HT29 cells. In words: CyQuant cell proliferation activity test, HT29. In kind it is cell-based. The following applies: Homo sapiens, HT-29, 72 h, HT29 2000 cells per well, 3 days incubation, initial concentration 3000 nM, IC50 by XLFIT, read-out: HT-29 Cell Viability_IC50_nM. In outline:
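HT29 cells (2000/well, RPMI-1640 with 10% FBS) were plated overnight, then exposed to compound for 3 days at 37 °C, 5% CO2. Dosing was 9 concentrations, 3-fold dilutions from 3000 nM, in 0.20% DMSO. Proliferation was read with CyQuant reagent after 1 h, and IC50 derived from the curves.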

The target of assay [1] is T1, Human KIF18A (amino acid sequence 1-417) (Homo sapiens, UniProt Q8NI77).
T1 construct: purchased Viva Biotech (Shanghai) Ltd
T1 sequence (Q8NI77 1-417): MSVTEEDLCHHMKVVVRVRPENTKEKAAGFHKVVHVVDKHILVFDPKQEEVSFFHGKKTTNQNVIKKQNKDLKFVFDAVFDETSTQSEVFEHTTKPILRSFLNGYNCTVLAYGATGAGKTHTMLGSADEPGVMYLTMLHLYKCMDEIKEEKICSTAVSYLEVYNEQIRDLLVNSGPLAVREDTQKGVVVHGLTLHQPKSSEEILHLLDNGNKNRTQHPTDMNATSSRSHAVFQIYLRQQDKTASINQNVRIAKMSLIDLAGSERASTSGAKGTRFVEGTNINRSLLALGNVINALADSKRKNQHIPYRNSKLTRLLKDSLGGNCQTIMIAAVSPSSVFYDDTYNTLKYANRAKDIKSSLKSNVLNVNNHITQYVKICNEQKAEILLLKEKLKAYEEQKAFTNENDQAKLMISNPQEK
T1 sequence (Q2XVP4 whole entry partner): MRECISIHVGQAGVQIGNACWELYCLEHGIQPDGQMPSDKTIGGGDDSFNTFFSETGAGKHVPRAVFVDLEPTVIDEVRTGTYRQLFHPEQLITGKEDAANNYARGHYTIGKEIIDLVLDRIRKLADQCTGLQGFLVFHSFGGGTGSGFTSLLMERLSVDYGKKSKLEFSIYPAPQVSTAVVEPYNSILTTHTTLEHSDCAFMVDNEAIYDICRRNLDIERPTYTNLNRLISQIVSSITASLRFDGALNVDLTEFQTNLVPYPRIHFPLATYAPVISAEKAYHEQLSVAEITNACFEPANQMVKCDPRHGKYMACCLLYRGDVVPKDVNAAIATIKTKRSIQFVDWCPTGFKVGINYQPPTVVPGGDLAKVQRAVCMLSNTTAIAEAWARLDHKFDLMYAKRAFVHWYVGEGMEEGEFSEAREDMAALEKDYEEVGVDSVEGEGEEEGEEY
T1 sequence (P02554 whole entry partner): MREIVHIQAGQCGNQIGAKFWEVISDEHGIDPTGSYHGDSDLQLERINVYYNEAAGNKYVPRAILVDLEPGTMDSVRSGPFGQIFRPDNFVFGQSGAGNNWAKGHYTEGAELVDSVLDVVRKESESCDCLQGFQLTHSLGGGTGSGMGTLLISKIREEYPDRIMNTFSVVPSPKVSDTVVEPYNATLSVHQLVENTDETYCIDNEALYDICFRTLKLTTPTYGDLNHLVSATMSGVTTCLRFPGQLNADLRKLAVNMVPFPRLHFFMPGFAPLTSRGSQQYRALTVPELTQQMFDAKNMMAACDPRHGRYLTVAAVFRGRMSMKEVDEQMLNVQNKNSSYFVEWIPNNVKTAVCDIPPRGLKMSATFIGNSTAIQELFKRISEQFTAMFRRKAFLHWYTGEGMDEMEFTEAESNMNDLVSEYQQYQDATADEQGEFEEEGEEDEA
The assay can be described thus: Enzyme activity detection experiment (ADP-Glo, KIF18A with tubulin and ATP). The following applies: tubulin 60 μg/mL, ATP 25 μM, KIF18A protein 2.5 nM, 120 minutes at ambient temperature, ADP-Glo chemiluminescence. In kind it is biochemical. The essentials:
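KIF18A (2.5 nM) was incubated with tubulin (60 μg/mL as added), ATP (25 μM) and serially diluted compound for 120 min at ambient temperature. ADP formed was detected by ADP-Glo: reagent for 30 min, then detection reagent for 30 min in the dark, with chemiluminescence read-out.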
(ADP-Glo turns the ADP formed in a reaction into a luminescent signal.)

On to `CC(C)(O)c1cc(-c2cn(-c3ccc(NS(=O)(=O)CCO)cc3N3CCC4(CC3)CC4)nn2)nc(N2CCC(F)(F)CC2)n1` [Example 71, N-(4-(4-(2-(4,4-difluoropiperidin-1-yl)-6-(2-hydroxypropan-2-yl)pyrimidin-4-yl)-1H-1,2,3-triazol-1-yl)-3-(6-azaspiro[2.5]octan-6-yl)phenyl)-2-hydroxyethanesulfonamide], for which the IC50 in the assay on OVCAR3 cells worked out at 0.094 µM; with HT29 cells, 0.131 µM; in assay [1] it was 0.165 µM.
On the same counts, the results for `O=S(=O)(CCO)Nc1ccc(-n2cc(-c3cc(N4CCC(F)(F)CC4)c4ncccc4c3)nn2)c(N2CCC3(CC2)CC3)c1` [Example 72, N-(4-(4-(8-(4,4-difluoropiperidin-1-yl)quinolin-6-yl)-1H-1,2,3-triazol-1-yl)-3-(6-azaspiro[2.5]octan-6-yl)phenyl)-2-hydroxyethane-1-sulfonamide] are 0.02 µM, 0.025 µM and 0.19 µM.
On the same counts, the results for `O=S(=O)(CCO)Nc1ccc(-n2cc(-c3cc4cccnc4c(N4CCC(F)(F)CC4)c3F)nn2)c(N2CCC3(CC2)CC3)c1` [Example 73, N-(3-{6-azaspiro[2.5]octan-6-yl}-4-{4-[8-(4,4-difluoropiperidin-1-yl)-7-fluoroquinolin-6-yl]-1H-1,2,3-triazol-1-yl}phenyl)-2-hydroxyethane-1-sulfonamide] are 0.034 µM, 0.063 µM and 0.271 µM.
On the same counts, the results for `Cc1ccc2cc(-c3cn(-c4ccc(NS(=O)(=O)CCO)cc4N4CCC5(CC4)CC5)nn3)cc(N3CCC(F)(F)CC3)c2n1` [Example 74, N-(3-{6-azaspiro[2.5]octan-6-yl}-4-{4-[8-(4,4-difluoropiperidin-1-yl)-2-methylquinolin-6-yl]-1H-1,2,3-triazol-1-yl}phenyl)-2-hydroxyethane-1-sulfonamide] are 0.119 µM, 0.127 µM and 0.807 µM.
Take `O=S(=O)(CCO)Nc1ccc(-n2cc(-c3cc(N4CCC(F)(F)CC4)c4nnccc4c3)nn2)c(N2CCC3(CC2)CC3)c1` [Example 76, N-(4-(4-(8-(4,4-difluoropiperidin-1-yl)cinnolin-6-yl)-1H-1,2,3-triazol-1-yl)-3-(6-azaspiro[2.5]octan-6-yl)phenyl)-2-hydroxyethane-1-sulfonamide]: the figures for the IC50 (with OVCAR3 cells; in the assay on HT29 cells; in assay [1]) were 0.012 µM, 0.016 µM and 0.075 µM, respectively.
On the same counts, the results for `Nc1cc2cc(-c3cn(-c4ccc(NS(=O)(=O)CCO)cc4N4CCC5(CC4)CC5)nn3)cc(N3CCC(F)(F)CC3)c2nn1` [Example 77, N-(4-(4-(3-amino-8-(4,4-difluoropiperidin-1-yl)cinnolin-6-yl)-1H-1,2,3-triazol-1-yl)-3-(6-azaspiro[2.5]octan-6-yl)phenyl)-2-hydroxyethane-1-sulfonamide] are 0.013 µM, 0.012 µM and 0.064 µM.
The corresponding values for `Cc1cc(-c2cn(-c3ccc(NS(=O)(=O)CCO)cc3N3CCC4(CC3)CC4)nn2)cc(N2CCC(F)(F)CC2)c1[N+](=O)[O-]` [Example 78, N-(3-{6-azaspiro[2.5]octan-6-yl}-4-{4-[3-(4,4-difluoropiperidin-1-yl)-5-methyl-4-nitrophenyl]-1H-1,2,3-triazol-1-yl}phenyl)-2-hydroxyethane-1-sulfonamide] are > 3 µM, > 3 µM and > 3 µM.
On the same counts, the results for `Nc1ncc(-c2cn(-c3ccc(NS(=O)(=O)CCO)cc3N3CCC4(CC3)CC4)nn2)nc1N1CCC(F)(F)CC1` [Example 79, N-(4-{4-[5-amino-6-(4,4-difluoropiperidin-1-yl)pyrazin-2-yl]-1H-1,2,3-triazol-1-yl}-3-{6-azaspiro[2.5]octan-6-yl}phenyl)-2-hydroxyethane-1-sulfonamide] are 0.011 µM, 0.007 µM and 0.024 µM.
`Nc1ccc2cc(-c3cn(-c4ccc(NS(=O)(=O)CCO)cc4N4CCC5(CC4)CC5)nn3)c(F)c(N3CCC(F)(F)CC3)c2n1` [Example 80, N-(4-{4-[2-amino-8-(4,4-difluoropiperidin-1-yl)-7-fluoroquinolin-6-yl]-1H-1,2,3-triazol-1-yl}-3-{6-azaspiro[2.5]octan-6-yl}phenyl)-2-hydroxyethane-1-sulfonamide]: the IC50 worked out at 0.021 µM with OVCAR3 cells, 0.026 µM in the assay with HT29 cells and 0.475 µM in assay [1].
The corresponding values for `Nc1nc2c(N3CCC(F)(F)CC3)c(F)c(-c3cn(-c4ccc(NS(=O)(=O)CCO)cc4N4CCC5(CC4)CC5)nn3)cc2s1` [Example 81, N-(4-{4-[2-amino-4-(4,4-difluoropiperidin-1-yl)-5-fluoro-1,3-benzothiazol-6-yl]-1H-1,2,3-triazol-1-yl}-3-{6-azaspiro[2.5]octan-6-yl}phenyl)-2-hydroxyethane-1-sulfonamide] are 0.02 µM, 0.03 µM and 0.71 µM.
The corresponding values for `O=S(=O)(CCO)Nc1ccc(-n2cc(-c3ccc(-c4cccnc4)c(N4CCC(F)(F)CC4)n3)nn2)c(N2CCC3(CC2)CC3)c1` [Example 82, N-(3-{6-azaspiro[2.5]octan-6-yl}-4-{4-[2-(4,4-difluoropiperidin-1-yl)-[3,3′-bipyridyl]-6-yl]-1H-1,2,3-triazol-1-yl}phenyl)-2-hydroxyethane-1-sulfonamide] are 0.015 µM, 0.023 µM and 0.283 µM.
On the same counts, the results for `Cc1cc(-c2cn(-c3ccc(NS(=O)(=O)[C@H](C)CO)cc3N3CCC4(CC3)CC4)nn2)nc(N2CCC(F)(F)CC2)n1` [Example 83, (2R)—N-(3-{6-azaspiro[2.5]octan-6-yl}-4-{4-[2-(4,4-difluoropiperidin-1-yl)-6-methylpyrimidin-4-yl]-1H-1,2,3-triazol-1-yl}phenyl)-1-hydroxypropane-2-sulfonamide] are 0.013 µM, 0.016 µM and 0.117 µM.
Regarding `Cc1cc(-c2cn(-c3ccc(NS(=O)(=O)[C@@H](C)CO)cc3N3CCC4(CC3)CC4)nn2)nc(N2CCC(F)(F)CC2)n1` [Example 84, (2S)—N-(3-{6-azaspiro[2.5]octan-6-yl}-4-{4-[2-(4,4-difluoropiperidin-1-yl)-6-methylpyrimidin-4-yl]-1H-1,2,3-triazol-1-yl}phenyl)-1-hydroxypropane-2-sulfonamide], the IC50 amounted to 0.021 µM with OVCAR3 cells, 0.025 µM in the assay with HT29 cells and 0.125 µM in assay [1].
On the same counts, the results for `Cc1cc(-c2cn(-c3ccc(NS(=O)(=O)C4(CO)CC4)cc3N3CCC4(CC3)CC4)nn2)nc(N2CCC(F)(F)CC2)n1` [Example 85, N-(3-{6-azaspiro[2.5]octan-6-yl}-4-{4-[2-(4,4-difluoropiperidin-1-yl)-6-methylpyrimidin-4-yl]-1H-1,2,3-triazol-1-yl}phenyl)-1-(hydroxymethyl)cyclopropane-1-sulfonamide] are 0.025 µM, 0.034 µM and 0.188 µM.
The corresponding values for `Cc1cc(-c2cn(-c3ccc(NS(=O)(=O)C(C)(C)CO)cc3N3CCC4(CC3)CC4)nn2)nc(N2CCC(F)(F)CC2)n1` [Example 86, N-(3-{6-azaspiro[2.5]octan-6-yl}-4-{4-[2-(4,4-difluoropiperidin-1-yl)-6-methylpyrimidin-4-yl]-1H-1,2,3-triazol-1-yl}phenyl)-1-hydroxy-2-methylpropane-2-sulfonamide] are 0.022 µM, 0.021 µM and 0.162 µM.
On the same counts, the results for `Cc1cc(-c2cn(-c3ccc(NS(=O)(=O)CCO)cc3N3CCC(=C(F)F)CC3)nn2)nc(N2CCC(F)(F)CC2)n1` [Example 88, N-{3-[4-(difluoromethylidene)piperidin-1-yl]-4-{4-[2-(4,4-difluoropiperidin-1-yl)-6-methylpyrimidin-4-yl]-1H-1,2,3-triazol-1-yl}phenyl}-2-hydroxyethane-1-sulfonamide] are 0.029 µM, 0.052 µM and 0.118 µM.
On to `Cc1cc(-n2cc(-c3ccc(NS(=O)(=O)CCO)cc3N3CCC4(CC3)CC4)nn2)nc(N2CCC(F)(F)CC2)n1` [Example 89, N-(4-(1-(2-(4,4-difluoropiperidin-1-yl)-6-methylpyrimidin-4-yl)-1H-1,2,3-triazol-4-yl)-3-(6-azaspiro[2.5]octan-6-yl)phenyl)-2-hydroxyethanesulfonamide], for which the IC50 in the assay with OVCAR3 cells is 0.036 µM; in the assay with HT29 cells, 0.04 µM; in assay [1], 0.061 µM.
As for `COc1cc(-n2cc(-c3ccc(NS(=O)(=O)CCO)cc3N3CCC4(CC3)CC4)nn2)nc(N2CCC(F)(F)CC2)n1` [Example 90, N-(3-{6-azaspiro[2.5]octan-6-yl}-4-{1-[2-(4,4-difluoropiperidin-1-yl)-6-methoxypyrimidin-4-yl]-1H-1,2,3-triazol-4-yl}phenyl)-2-hydroxyethane-1-sulfonamide], the figures for the IC50 (in the assay with OVCAR3 cells; with HT29 cells; in assay [1]) were 0.044 µM, 0.062 µM and 0.016 µM, respectively.
On the same counts, the results for `Cc1cc(-n2cc(-c3ccc(NS(=O)(=O)CCO)cc3N3CCC4(CC3)CC4)nn2)cc(N2CCC(F)(F)CC2)n1` [Example 91] are 0.087 µM, 0.126 µM and 0.278 µM.
